# Laboratory results reported in PubChem BioAssay (NCI).
#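 Five concentrations, 48 hours, 96-well plates. TGI is the concentration that stops growth completely.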
# Key:
# Assay in all cases: NCI anticancer screen, dose series, 48 h
# [1] = system: 786-0 renal
# [2] = system: A498 renal
# [3] = system: A549 NSCLC
# [4] = system: ACHN renal
# [5] = system: BT-549 breast
# [6] = system: CAKI-1 renal
# [7] = system: COLO 205 colon
# [8] = system: DU-145 prostate
# [9] = system: EKVX NSCLC
# [10] = system: HCC-2998 colon
# [11] = system: HCT-116 colon
# [12] = system: HCT-15 colon
# [13] = system: HOP-62 NSCLC
# [14] = system: HOP-92 NSCLC
# [15] = system: HS 578T breast
# [16] = system: HT29 colon
# [17] = system: IGROV1 ovarian
# [18] = system: K-562 leukemia
# [19] = system: KM12 colon
# [20] = system: M14 melanoma
# [21] = system: MALME-3M melanoma
# [22] = system: MCF7 breast
# [23] = system: MDA-MB-231 breast
# [24] = system: MDA-MB-435
# [25] = system: MDA-N
# [26] = system: MOLT-4 leukemia
# [27] = system: NCI-H226 lung
# [28] = system: NCI-H23 lung
# [29] = system: NCI-H460 lung
# [30] = system: NCI-H522 lung
# [31] = system: NCI/ADR-RES ovarian
# [32] = system: OVCAR-3 ovarian
# [33] = system: OVCAR-4 ovarian
# [34] = system: OVCAR-5 ovarian
# [35] = system: OVCAR-8 ovarian
# [36] = system: PC-3 prostate
# [37] = system: RPMI-8226 leukemia
# [38] = system: RXF 393 renal
# [39] = system: SF-268 CNS
# [40] = system: SF-295 CNS
# [41] = system: SF-539 CNS
# [42] = system: SK-MEL-2 melanoma
# [43] = system: SK-MEL-28 melanoma
# [44] = system: SK-MEL-5 melanoma
# [45] = system: SK-OV-3 ovarian
# [46] = system: SN12C renal
# [47] = system: SNB-19 CNS
# [48] = system: SNB-75 CNS
# [49] = system: SR leukemia
# [50] = system: SW-620 colon
# [51] = system: T-47D breast
# [52] = system: TK-10 renal
# [53] = system: U251 CNS
# [54] = system: UACC-257 melanoma
# [55] = system: UACC-62 melanoma
# [56] = system: UO-31 renal
smiles,measurement,setting,value
O=C1c2ccccc2C(=O)c2c(NC(=O)c3ccc4c5c(ncnc35)-c3ccccc3C4=O)cccc21,TGI,[1],84.7 µM
same,TGI,[2],> 100 µM
same,TGI,[3],> 100 µM
same,TGI,[4],> 100 µM
same,TGI,[5],> 100 µM
same,TGI,[6],> 100 µM
same,TGI,[7],> 100 µM
same,TGI,[8],> 100 µM
same,TGI,[9],> 100 µM
same,TGI,[10],> 100 µM
same,TGI,[11],> 100 µM
same,TGI,[12],> 100 µM
same,TGI,[13],42.7 µM
same,TGI,[14],> 100 µM
same,TGI,[15],> 100 µM
same,TGI,[16],> 100 µM
same,TGI,[17],> 100 µM
same,TGI,[18],> 100 µM
same,TGI,[19],> 100 µM
same,TGI,[20],> 100 µM
same,TGI,[21],> 100 µM
same,TGI,[22],> 100 µM
same,TGI,[23],> 100 µM
same,TGI,[24],> 100 µM
same,TGI,[25],> 100 µM
same,TGI,[26],> 100 µM
same,TGI,[27],> 100 µM
same,TGI,[28],> 100 µM
same,TGI,[29],> 100 µM
same,TGI,[30],> 100 µM
same,TGI,[31],> 100 µM
same,TGI,[32],> 100 µM
same,TGI,[33],> 100 µM
same,TGI,[34],> 100 µM
same,TGI,[35],> 100 µM
same,TGI,[36],> 100 µM
same,TGI,[37],> 100 µM
same,TGI,[38],49.1 µM
same,TGI,[39],> 100 µM
same,TGI,[40],64 µM
same,TGI,[41],> 100 µM
same,TGI,[42],> 100 µM
same,TGI,[43],> 100 µM
same,TGI,[44],> 100 µM
same,TGI,[45],48.2 µM
same,TGI,[46],> 100 µM
same,TGI,[47],> 100 µM
same,TGI,[48],58.5 µM
same,TGI,[49],> 100 µM
same,TGI,[50],> 100 µM
same,TGI,[51],> 100 µM
same,TGI,[52],47.6 µM
same,TGI,[53],> 100 µM
same,TGI,[54],> 100 µM
same,TGI,[55],> 100 µM
same,TGI,[56],> 100 µM
